Measurements: ChEMBL document CHEMBL1158304, “New Oxygenated Cephalotaxus Alkaloids from Cephalotaxus harringtonia var. drupacea” (J Nat Prod, 1996)
Converted amounts (≈) assume the structure as drawn.

Test system: P388
Assay: Cytotoxicity against mouse P388 cells
Format: functional, cell-based

Molecule `COC(=O)C[C@](O)(CCCC(C)C)C(=O)O[C@@H]1C(OC)=C[C@]23CCCN2C[C@@H](O)c2cc4c(cc2[C@H]13)OCO4` has an IC50 of 0.38 µg/mL (≈ 0.696 µM).
For `COC(=O)C[C@](O)(CCCC(C)C)C(=O)O[C@@H]1C(OC)=C[C@]23CCCN2C[C@H](O)c2cc4c(cc2[C@H]13)OCO4`, the IC50 was 0.33 µg/mL (≈ 0.605 µM).
`COC(=O)C[C@](O)(CCC(C)C)C(=O)O[C@@H]1C(OC)=C[C@]23CCCN2C[C@H](O)c2cc4c(cc2[C@H]13)OCO4` gave an IC50 of 0.17 µg/mL (≈ 0.32 µM).
